According to publication PMC9917025, “(2-Hydroxy-3-Methoxybenzylidene)thiazolo[3,2-a]pyrimidines: Synthesis, Self-Assembly in the Crystalline Phase and Cytotoxic Activity” (International Journal of Molecular Sciences, 2023):

Tests used:
[1] = tested on: HuTu 80 (human duodenal adenocarcinoma); test: MTT cytotoxicity assay, HuTu 80 cells; format: cell-based; details: for IC50: Homo sapiens, HuTu80, MTT, 48 h incubation, mean ± SD, triplicate
Text: (§1) For the experiments, the tumor cell cultures of M-HeLa clone 11 (epithelioid carcinoma of the cervix, subline HeLa., clone M-HeLa), HuTu 80, human duodenal adenocarcinoma, MCF7—human breast adenocarcinoma (pleural fluid) collected from the Institute of Cytology, Russian Academy of Sciences (St. Petersburg, Russia); PC3—prostate adenocarcinoma cell line collected from ATCC (American Type Cell Collection, Manassas, VA, USA; CRL 1435; human liver cells (Chang liver) and the Research Institute of Virology of the Russian Academy of Medical Sciences (Moscow, Russia) were used for cytotoxicity analysis.
(§2) The cytotoxic effect on cells was determined by the colorimetric method of cell proliferation—MTT test. The cells were seeded on a 96-well Nunc plate at a concentration of 5 × 10^3 cells per well in a volume of 100 µL of medium and cultured in a CO2 incubator at 37 °C until a monolayer was formed. Then, the nutrient medium was removed and 100 μL of the test drug solution in these dilutions was added to the wells prepared directly in the nutrient medium with the addition of 5% DMSO to improve solubility. After 48 h of cell incubation with test compounds, the nutrient medium was removed from the plates and 100 μL of serum-free nutrient medium with MTT at a concentration of 0.5 mg/mL was added and incubated for 4 h at 37 °C. C. Formazan crystals were added to 100 µL of DMSO. The optical density was recorded at 540 nm on an Invitrologic microplate reader (Novosibirsk, Russia). The experiments for all compounds were repeated three times.

[2] = tested on: MCF−7 (human breast adenocarcinoma); test: MTT cytotoxicity assay, MCF-7 cells; format: cell-based; details: MCF7, 48 h incubation, mean ± SD, triplicate
Method: The cytotoxic effect on cells was determined by the colorimetric method of cell proliferation—MTT test. […] C. Formazan crystals were added to 100 µL of DMSO. The optical density was recorded at 540 nm on an Invitrologic microplate reader (Novosibirsk, Russia). The experiments for all compounds were repeated three times.

[3] = tested on: M-HeLa clone 11 (epithelioid carcinoma of the cervix, subline HeLa, clone M-HeLa); test: MTT cytotoxicity assay, M-HeLa cells; format: cell-based; details: for IC50: Homo sapiens, M-HeLa, MTT, 48 h incubation, mean ± SD, triplicate; for selectivity index (SI): ratio between IC50 for normal cells and IC50 for tumor cells, with respect to M-HeLa cell line
Text: as §1, §2

[4] = tested on: Chang liver (HeLa derivative), human liver cells; test: MTT cytotoxicity assay, normal Chang liver cells; format: cell-based; details: for IC50: Homo sapiens, HeLa, MTT, 48 h incubation, mean ± SD, triplicate, read-out: IC50 (µM) Chang Liver (HeLa), normal cell line
Text: as §1, §2

[5] = tested on: PC3 (prostate adenocarcinoma cell line); test: MTT cytotoxicity assay, PC3 cells; format: cell-based; details: Homo sapiens, PC-3, 48 h incubation, mean ± SD, triplicate
Text: as §1, §2

With `COc1cccc(/C=c2\sc3n(c2=O)C(c2ccc(C)cc2)C(C(C)=O)=C(C)N=3)c1O` (stereo not shown) [Compound 1, 6-Acetyl-(Z)−2-(2-hydroxy−3-methoxybenzylidene)−7-methyl−5-(p-tolyl)−2H-thiazolo[3,2-a]pyrimidine−3(5H)-one] the melting point was 209 to 211 °C, the IC50 [1] was 88 ± 6.9 µM and the IC50 [2] was > 100 µM. The IC50 [3] was 88 ± 7 µM, the IC50 [4] was > 100 µM and the IC50 [5] was 57.4 ± 4.5 µM.
Compound `CCOC(=O)C1=C(C)N=c2s/c(=C\c3cccc(OC)c3O)c(=O)n2C1c1cccc([N+](=O)[O-])c1` (stereo not shown) [Compound 2, Ethyl (Z)−2-(2-hydroxy−3-methoxybenzylidene)−7-methyl−5-(3-nitrophenyl)−3-oxo−2,3-dihydro−5H-thiazolo[3,2-a]pyrimidine−6-carboxylate] has a melting point of 206 to 208 °C, an IC50 [1] of 90 ± 8 µM and an IC50 [2] of 72 ± 5.8 µM. The “cytotoxicity against M-HeLa (in words)” value [3] was “high cytotoxicity”, the IC50 [3] was 16.2 ± 1.3 µM and the “selectivity index (SI)” value [3] was “higher than 6”. For the same compound, the “efficiency of cytotoxicity towards M-HeLa compared to Sorafenib” value ([3]; relative to reference drug Sorafenib) was “two times higher”, the “activity on normal cells, Chang liver (in words)” value [4] was “low biological activity” and the IC50 [4] was > 100 µM. For the same compound, the IC50 [5] was > 100 µM.
In the case of `CCOC(=O)C1=C(C)N=c2s/c(=C\c3cccc(OC)c3O)c(=O)n2C1c1ccccc1OC` (stereo not shown) [Compound 3, Ethyl (Z)-2-(2-hydroxy-3-methoxybenzylidene)-7-methyl-5-(2-methoxyphenyl)-3-oxo-2,3-dihydro-5H-thiazolo[3,2-a]pyrimidine-6-carboxylate], the melting point is reported as 193 to 195 °C, the IC50 [1] is reported as > 100 µM and the IC50 [2] is reported as > 100 µM. It also gave an IC50 [3] of 98.1 ± 7.7 µM, an IC50 [4] of 96 ± 7.5 µM and an IC50 [5] of 54.1 ± 4.3 µM.
For `CCOC(=O)C1=C(C)N=c2s/c(=C\c3cccc(OC)c3O)c(=O)n2C1c1ccccc1` (stereo not shown) [Compound 4, Ethyl (Z)−2-(2-hydroxy−3-methoxybenzylidene)−7-methyl−5-phenyl−3-oxo−2,3-dihydro−5H-thiazolo[3,2-a]pyrimidine−6-carboxylate], the melting point was 231 to 233 °C, the IC50 [1] was > 100 µM and the IC50 [2] was > 100 µM. The IC50 [3] was > 100 µM, the IC50 [4] was > 100 µM and the IC50 [5] was > 100 µM.
With `CCOC(=O)C1=C(C)N=c2s/c(=C\c3cccc(OC)c3O)c(=O)n2C1c1cccc(Br)c1` (stereo not shown) [Compound 5, Ethyl 5-(3-bromophenyl)-(Z)−2-(2-hydroxy−3-methoxybenzylidene)−7-methyl−3-oxo−2,3-dihydro−5H-thiazolo[3,2-a]pyrimidine−6-carboxylate] the melting point was 190 to 192 °C, the “cytotoxicity towards HuTu 80 (in words)” value [1] was “Moderate cytotoxicity” and the IC50 [1] was 43.3 ± 3.4 µM. For the same compound, the IC50 [2] was > 100 µM, the IC50 [3] was > 100 µM and the “activity on normal cells, Chang liver (in words)” value [4] was “Moderate cytotoxicity”. The IC50 [4] was 51.4 ± 4.1 µM and the IC50 [5] was > 100 µM.
With `CCOC(=O)C1=C(C)N=c2s/c(=C\c3cccc(OC)c3O)c(=O)n2C1c1ccc(Br)cc1` (stereo not shown) [Compound 6, Ethyl 5-(4-bromophenyl)-(Z)−2-(2-hydroxy−3-methoxybenzylidene)−7-methyl−3-oxo−2,3-dihydro−5H-thiazolo[3,2-a]pyrimidine−6-carboxylate] the melting point was 234 to 236 °C, the IC50 [1] was 90.3 ± 8.1 µM and the IC50 [2] was > 100 µM. It also gave an IC50 [3] of 85 ± 7.8 µM, an IC50 [4] of 64.2 ± 5.1 µM and an IC50 [5] of 100 ± 8.6 µM.
For `CNC(=O)c1cc(Oc2ccc(NC(=O)Nc3ccc(Cl)c(C(F)(F)F)c3)cc2)ccn1` [Sorafenib, reference compound], the IC50 [1] was 13 ± 1.2 µM, the IC50 [3] was 25 ± 1.8 µM and the “selectivity index (SI)” value [3] was “lower than 1”. The IC50 [5] was 12.7 ± 1.1 µM.
